Here are results for 5 compounds from US11077090B2, “Compounds and compositions and uses thereof” (Sunovion Pharmaceuticals Inc., priority 2016, dated 2021).

Each structure is given as a SMILES string. Bounds are passed on as bounds.

For the first assay, the system named is compound-treated mice. In words: Neuropharmacological assay (SmartCube): behavioral activity signature and minimal effective dose. Format: in vivo. The following applies: Mus musculus, ip, MED = dose having 50% or more total activity, read-out: Potency: minimal effective dose (MED). The source says:
Neurosci. 2011 Sep. 9; 5:103 (doi: 10.3389/fnins.2011.00103) (“Roberds”). As reported in Roberds, because psychiatric diseases generally result from disorders of cell-cell communication or circuitry, intact systems are useful in detecting improvement in disease-relevant endpoints. These endpoints are typically behavioral in nature, often requiring human observation and interpretation. To facilitate testing of multiple compounds for behavioral effects relevant to psychiatric disease, PsychoGenics, Inc. (Tarrytown, N.Y., “PGI”) developed SmartCube™, an automated system in which behaviors of compound-treated mice are captured by digital video and analyzed with computer algorithms. (D. Brunner et al., Drug Discov. Today 2002, 7:S107-S112). PGI Analytical Systems uses data from SmartCube™ to compare the behavioral signature of a test compound to a database of behavioral signatures obtained using a large set of diverse reference compounds. (The composition of the database as well as validation of the method is further described in Roberds). In this way, the neuropharmacological effects of a test compound can be predicted by similarity to major classes of compounds, such as antipsychotics, anxiolytics and antidepressants.
The SmartCube™ system produces an activity signature indicating the probability that the activity of the test compound at the administered dose matches a given class of neuropharmacological agents. (See, e.g., Roberds, FIGS. 2 and 3). The test compound is simultaneously compared against multiple classes of agents; thus, a separate probability is generated for each behavioral effect measured (e.g., anxiolytic activity, analgesic activity, etc.). In the table below, these probabilities are reported for each behavioral effect measured as follows:
where LOQ is the limit of quantification.
Provided compounds were dissolved in a mixture of Pharmasolve™ (N-methyl-2-pyrrolidone), polyethylene glycol and propylene glycol, and were injected i.p. 15 min. before the behavioral test. For each compound, injections were administered at 3 different doses. For each behavioral effect measured, results for the most efficacious dose(s) are presented. In the table below, DP: anti-depressant; AX: anxiolytic; SD: sedative hypnotic; PS: anti-psychotic; MS: mood stabilizer; AD: ADHD; CE: cognitive enhancer; AG: analgesic; UN: uncharacterized CNS activity.
The potency of many of the compounds in the table was also determined in the SmartCube™ system. Test compounds were routinely examined at dose levels of 0.3, 1, 3, 10 and 30 mg per kg (mpk), although the dose range was increased or decreased if necessary to obtain a full dose response curve. A compound's minimal effective dose (MED) is a measure of the compounds potency. The MED was defined as the dose (in mpk) having 50% or more total activity in SmartCube.
As for `Cc1cccc2c1COC[C@H]2N` (single isomer, unassigned) [Example 129], the minimal effective dose (usually the lowest level tested that produced the effect sought) lay within 3 to 10 mg/kg.
Same read-out and setting: the same measure for `Cc1cccc2c1COC[C@@H]2N` (single isomer, unassigned) [Example 130]: 3 to 10 mg/kg.
Same read-out and setting: the same measure for `Cc1cccc2c1[C@H](N)COC2` (single isomer, unassigned) [Example 133]: less than 3 mg/kg; for `Cc1cccc2c1[C@@H](N)COC2` (single isomer, unassigned) [Example 134]: 3 to 10 mg/kg.
On the same count and under the same terms, the same measure for `CN[C@@H]1COCc2cccc(C)c21` (single isomer, unassigned) [Example 137]: 3 to 10 mg/kg.

Still in this assay, the particulars now being: i.p. 15 min before test, most efficacious dose(s).
For `Cc1cccc2c1COC[C@H]2N` (single isomer, unassigned) [Example 129], the “AD: ADHD (probability of activity signature)” value (“AD: ADHD” for short) is “+ (LOQ ≤ + <5%)”, the “AG: analgesic (probability of activity signature)” value (shortened to “AG: analgesic”) is listed as “++ (5% ≤ ++ <25%)”, the “AX: anxiolytic (probability of activity signature)” value (“AX: anxiolytic” for short) was “+++ (25% ≤ +++ <50%)” and the “CE: cognitive enhancer (probability of activity signature)” value (“CE: cognitive enhancer” for short) is reported as “++ (5% ≤ ++ <25%)”. Further, the “DP: anti-depressant (probability of activity signature)” value (“DP: anti-depressant” for short) is “++ (5% ≤ ++ <25%)”, the “MS: mood stabilizer (probability of activity signature)” value (from here on “MS: mood stabilizer”) was “+ (LOQ ≤ + <5%)”, the “PS: anti-psychotic (probability of activity signature)” value (from here on “PS: anti-psychotic”) is given as “++ (5% ≤ ++ <25%)” and the “SD: sedative hypnotic (probability of activity signature)” value (“SD: sedative hypnotic” for short) is reported as “++ (5% ≤ ++ <25%)”. Moreover, the “UN: uncharacterized CNS activity (probability of activity signature)” value (“UN: uncharacterized CNS activity” below) is on record as “+++ (25% ≤ +++ <50%)”.
With `Cc1cccc2c1COC[C@@H]2N` (single isomer, unassigned) [Example 130], the “AD: ADHD” value was “+ (LOQ ≤ + <5%)”, the “AG: analgesic” value is “++ (5% ≤ ++ <25%)”, the “AX: anxiolytic” value is “++ (5% ≤ ++ <25%)” and the “CE: cognitive enhancer” value is “++ (5% ≤ ++ <25%)”. The “DP: anti-depressant” value was “++ (5% ≤ ++ <25%)”, the “MS: mood stabilizer” value is recorded as “+ (LOQ ≤ + <5%)”, the “PS: anti-psychotic” value is “+++ (25% ≤ +++ <50%)” and the “SD: sedative hypnotic” value is recorded as “++ (5% ≤ ++ <25%)”. Also, the “UN: uncharacterized CNS activity” value was “++++ (50% ≤ ++++)”.
On to `Cc1cccc2c1[C@H](N)COC2` (single isomer, unassigned) [Example 133], for which the “AD: ADHD” value is “+ (LOQ ≤ + <5%)”, the “AG: analgesic” value was “++ (5% ≤ ++ <25%)”, the “AX: anxiolytic” value is listed as “++ (5% ≤ ++ <25%)” and the “CE: cognitive enhancer” value is recorded as “++ (5% ≤ ++ <25%)”. Further, the “DP: anti-depressant” value is on record as “++ (5% ≤ ++ <25%)”, the “MS: mood stabilizer” value is “+ (LOQ ≤ + <5%)”, the “PS: anti-psychotic” value is listed as “+++ (25% ≤ +++ <50%)” and the “SD: sedative hypnotic” value is listed as “+ (LOQ ≤ + <5%)”. Also, the “UN: uncharacterized CNS activity” value was “++++ (50% ≤ ++++)”.
`Cc1cccc2c1[C@@H](N)COC2` (single isomer, unassigned) [Example 134]: the “AD: ADHD” value is on record as “+ (LOQ ≤ + <5%)”, the “AG: analgesic” value is “++ (5% ≤ ++ <25%)”, the “AX: anxiolytic” value is “+++ (25% ≤ +++ <50%)” and the “CE: cognitive enhancer” value is reported as “++ (5% ≤ ++ <25%)”. For the same compound, the “DP: anti-depressant” value is given as “++ (5% ≤ ++ <25%)”, the “MS: mood stabilizer” value is recorded as “+ (LOQ ≤ + <5%)”, the “PS: anti-psychotic” value was “++ (5% ≤ ++ <25%)” and the “SD: sedative hypnotic” value was “++ (5% ≤ ++ <25%)”. The “UN: uncharacterized CNS activity” value is recorded as “+++ (25% ≤ +++ <50%)”.
For `CN[C@@H]1COCc2cccc(C)c21` (single isomer, unassigned) [Example 137], the “AD: ADHD” value is recorded as “+ (LOQ ≤ + <5%)”, the “AG: analgesic” value is given as “++ (5% ≤ ++ <25%)”, the “AX: anxiolytic” value is “++ (5% ≤ ++ <25%)” and the “CE: cognitive enhancer” value is “++ (5% ≤ ++ <25%)”. Moreover, the “DP: anti-depressant” value is “+ (LOQ ≤ + <5%)”, the “MS: mood stabilizer” value is recorded as “+ (LOQ ≤ + <5%)”, the “PS: anti-psychotic” value is “++ (5% ≤ ++ <25%)” and the “SD: sedative hypnotic” value is recorded as “+ (LOQ ≤ + <5%)”. Moreover, the “UN: uncharacterized CNS activity” value is “+++ (25% ≤ +++ <50%)”.
